Laboratory results as given in patent US12559461B2, “Antibiotic adjuvant compounds” (UNIVERSITY OF NOTRE DAME DU LAC, priority 2020, dated 2026).
Where two headings read alike, the source gives them in different places.

Columns and labels:
Assay type in all cases: cell-based, Acinetobacter baumannii
[1] = test system: A. baumannii isolates (23 strains); test: Clarithromycin potentiation against AB isolates; settings: adjuvant at 10 μM
Description: Broth microdilution method for antibiotic potentiation. Day cultures (6 h) of bacteria in CAMHB were subcultured to 5×10^5 CFU/mL in CAMHB. Aliquots (4 mL) were placed in culture tubes and dosed with compound from 10 mM stock samples to give the desired concentration of the compound to be tested against the particular bacterial strain; this insured non-toxic DMSO concentrations ≤0.3% in each well. 1 mL of the resulting solution was placed in a separate culture and dosed with antibiotic at the highest concentration to be tested. Bacteria treated with antibiotic alone served as the control. Row one of a 96-well plate was filled with 200 μL of the antibiotic/2-AI solution, and rows 2-12 were filled with 100 μL each of the remaining 4 mL of bacterial subculture containing adjuvant at the desired concentration, except for the control lane which contained only bacterial subculture. Row one was then mixed five times, and 100 μL was transferred to row two, which was then mixed five times before being transferred to row three. This process was repeated until all rows had been mixed, except for row twelve which would have only 2-AI to serve as a control to monitor potential toxicity. The 96-well plate was then covered in Glad Press n'Seal and incubated under stationary conditions at 37° C. for 16 h. MIC values were determined as the lowest concentration at which no bacterial growth was observed, and fold reductions were determined by comparison to antibiotic control lane.

[2] = test system: A. baumannii isolates (23 strains); test: Minimum inhibitory concentration against AB isolates; settings: Acinetobacter baumannii, compound alone
Description: Broth microdilution method for MIC determination. Day cultures (6 h) of each bacterial strain in cation adjusted Mueller Hinton II broth (CAMHB, Fisher Scientific U.S.) were subcultured to 5×10^5 CFU/mL in CAMHB. Aliquots (1 mL) were placed in culture tubes and compound was added from 10 mM stock samples in DMSO, such that compound concentration equaled highest concentration tested (200 μM). Samples were then aliquoted (200 μL) into the first wells of a 96-well plate, with all remaining wells being filled with 100 μL of initial bacterial subculture. Row one wells were mixed five times, before 100 μL was transferred to row two. Row two was then mixed five times, and 100 μL was transferred to row three. This process was repeated until the final row had been mixed; this served to serially dilute the compound. Plates were then covered with GLAD Press n'Seal and incubated under stationary conditions at 37° C. for 16 h. MIC values were then recorded as the lowest concentration at which no bacterial growth was observed.

AB5075 [3] = test: Broth microdilution MIC of compound alone (standalone toxicity)
Method in brief: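 A. baumannii 5075 subcultured to 5×10^5 CFU/mL in cation-adjusted Mueller-Hinton broth; compound twofold serially diluted from 200 μM (DMSO stock) and incubated stationary at 37° C for 16 h. MIC taken as lowest concentration with no visible growth; duplicates, repeated at least twice.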

AB5075 [4] = test: Broth microdilution clarithromycin (CLR) potentiation and dose-response of adjuvant
Method in brief: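 A. baumannii AB5075 at 5×10^5 CFU/mL in CAMHB with fixed adjuvant (DMSO ≤0.3%) and two-fold serially diluted clarithromycin or colistin, stationary 16 h at 37° C. MIC = lowest concentration without visible growth; fold reduction versus antibiotic alone. Dose-response used adjuvant at 0–30 μM.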

SMILES: Cl.Nc1nc(-c2ccc(NC(=O)c3ccc(Cl)c(Cl)c3)cc2F)c[nH]1 [Compound 15b, N-(4-(2-amino-1H-imidazol-4-yl)-3-fluorophenyl)-3,4-dichlorobenzamide hydrochloride]
- CLR MIC + adjuvant ([1]; A. baumannii strain 3560): 2 µg/mL
- CLR MIC + adjuvant ([1]; A. baumannii strain 3785): 4 µg/mL
- CLR MIC + adjuvant ([1]; A. baumannii strain 3806): 0.5 µg/mL
- CLR MIC + adjuvant ([1]; A. baumannii strain 3927): 2 µg/mL
- CLR MIC + adjuvant ([1]; A. baumannii strain 4025): 1 µg/mL
- CLR MIC + adjuvant ([1]; A. baumannii strain 4026): 4 µg/mL
- CLR MIC + adjuvant ([1]; A. baumannii strain 4027): 1 µg/mL
- CLR MIC + adjuvant ([1]; A. baumannii strain 4052): 1 µg/mL
- CLR MIC + adjuvant ([1]; A. baumannii strain 4269): 2 µg/mL
- CLR MIC + adjuvant ([1]; A. baumannii strain 4448): 2 µg/mL
- CLR MIC + adjuvant ([1]; A. baumannii strain 4456): 2 µg/mL
- CLR MIC + adjuvant ([1]; A. baumannii strain 4490): 2 µg/mL
- CLR MIC + adjuvant ([1]; A. baumannii strain 4498): 2 µg/mL
- CLR MIC + adjuvant ([1]; A. baumannii strain 4795): 2 µg/mL
- CLR MIC + adjuvant ([1]; A. baumannii strain 4857): 1 µg/mL
- CLR MIC + adjuvant ([1]; A. baumannii strain 4878): 2 µg/mL
- CLR MIC + adjuvant ([1]; A. baumannii strain 4957): 4 µg/mL
- CLR MIC + adjuvant ([1]; A. baumannii strain 4991): 2 µg/mL
- CLR MIC + adjuvant ([1]; A. baumannii strain 5001): 4 µg/mL
- CLR MIC + adjuvant ([1]; A. baumannii strain 5197): 2 µg/mL
- CLR MIC + adjuvant ([1]; A. baumannii strain 5256): 1 µg/mL
- CLR MIC + adjuvant ([1]; A. baumannii strain 5711): 4 µg/mL
- CLR MIC + adjuvant ([1]; A. baumannii strain 8967): 1 µg/mL
- MIC ([2]; A. baumannii strain 3560, read-out: Minimum inhibitory concentration of compound): 50 µM
- MIC ([2]; A. baumannii strain 3785, read-out: Minimum inhibitory concentration of compound): 200 µM
- MIC ([2]; A. baumannii strain 3806, read-out: Minimum inhibitory concentration of compound): 200 µM
- MIC ([2]; A. baumannii strain 3927, read-out: Minimum inhibitory concentration of compound): > 200 µM
- MIC ([2]; A. baumannii strain 4025, read-out: Minimum inhibitory concentration of compound): 100 µM
- MIC ([2]; A. baumannii strain 4026, read-out: Minimum inhibitory concentration of compound): 100 µM
- MIC ([2]; A. baumannii strain 4027, read-out: Minimum inhibitory concentration of compound): 200 µM
- MIC ([2]; A. baumannii strain 4052, read-out: Minimum inhibitory concentration of compound): > 200 µM
- MIC ([2]; A. baumannii strain 4269, read-out: Minimum inhibitory concentration of compound): > 200 µM
- MIC ([2]; A. baumannii strain 4448, read-out: Minimum inhibitory concentration of compound): > 200 µM
- MIC ([2]; A. baumannii strain 4456, read-out: Minimum inhibitory concentration of compound): 50 µM
- MIC ([2]; A. baumannii strain 4490, read-out: Minimum inhibitory concentration of compound): > 200 µM
- MIC ([2]; A. baumannii strain 4498, read-out: Minimum inhibitory concentration of compound): 100 µM
- MIC ([2]; A. baumannii strain 4795, read-out: Minimum inhibitory concentration of compound): 100 µM
- MIC ([2]; A. baumannii strain 4857, read-out: Minimum inhibitory concentration of compound): 50 µM
- MIC ([2]; A. baumannii strain 4878, read-out: Minimum inhibitory concentration of compound): 200 µM
- MIC ([2]; A. baumannii strain 4957, read-out: Minimum inhibitory concentration of compound): > 200 µM
- MIC ([2]; A. baumannii strain 4991, read-out: Minimum inhibitory concentration of compound): > 200 µM
- MIC ([2]; A. baumannii strain 5001, read-out: Minimum inhibitory concentration of compound): > 200 µM
- MIC ([2]; A. baumannii strain 5197, read-out: Minimum inhibitory concentration of compound): > 200 µM
- MIC ([2]; A. baumannii strain 5256, read-out: Minimum inhibitory concentration of compound): > 200 µM
- MIC ([2]; A. baumannii strain 5711, read-out: Minimum inhibitory concentration of compound): > 200 µM
- MIC ([2]; A. baumannii strain 8967, read-out: Minimum inhibitory concentration of compound): > 200 µM
- MIC ([2]; remaining 20 strains, read-out: MIC values): ≥ 100 µM
- MIC ([2]; three of the AB isolates, read-out: MIC values): 50 µM
- MIC (AB5075 [3]; Acinetobacter baumannii): > 200 µM
- MIC (AB5075 [3]; hydrochloride): >200 µM
- CLR MIC (AB5075 [4]; compound tested at 5 μM): 8 µg/mL
- Fold Reduction of CLR MIC (AB5075 [4]; compound tested at 5 μM): 4 fold
- CLR MIC (AB5075 [4]; compound tested at 7.5 μM): 1 µg/mL
- Fold Reduction of CLR MIC (AB5075 [4]; compound tested at 7.5 μM): 32 fold
- CLR MIC (AB5075 [4]; compound tested at 10 μM): 0.5 µg/mL
- Fold Reduction of CLR MIC (AB5075 [4]; compound tested at 10 μM): 64 fold
- CLR MIC (AB5075 [4]; compound tested at 20 μM): 0.5 µg/mL
- Fold Reduction of CLR MIC (AB5075 [4]; compound tested at 20 μM): 64 fold
- CLR MIC (AB5075 [4]; compound tested at 30 μM): 0.5 µg/mL
- Fold Reduction of CLR MIC (AB5075 [4]; compound tested at 30 μM): 64 fold
